Test results reported in patent US4470980A, “Method of increasing oral absorption of β-lactam antibiotics” (priority 1981, dated 1984).

Assay: in vivo
Conditions: mouse, urine, po, control without sodium salicylate, cefmetazole 50 mg/kg, gavage, mice, ± standard deviation, 8 mice, read-out: Percent of Dose In Urine
Protocol: The sodium salt of cefmetazole (50 mg/kg) and sodium salicylate (200 mg/kg) dissolved in water were given to mice by gavage. As a control, mice were given an equal dose of the sodium salt of cefmetazole in water without the added sodium salicylate. The mice were place in individual metabolism cages and their urines collected after 24 hours.
The urine samples were acidified to pH 2.0 with 1N phosphoric acid. Acidified samples were applied to 100-200 mesh XAD.2 columns (1.5 ml), and the column washed with H2 O. Cefmetazole was eluted with 2 ml methanol and measured by high pressure liquid chromatography which was carried out using an Altex liquid chromatograph equipped with a dual wavelength recorder (254 nm and 280 nm). The column was a LiChrosorb 10 RP-18 (length=25 cm., internal diameter--4.6 mm) obtained from Chrompack, Whittier, CA. All assays were done at ambient temperatures. A 3 cm guard column of RP-18 column material (Rheodyne, Inc., Berkeley, CA) was also used. […] Concentrations of cefmetazole were determined by measuring peak height at 254 nm and evaluating on the basis of standard curves run under identical conditions.
For `CO[C@@]1(NC(=O)CSCC#N)C(=O)N2C(C(=O)O)=C(CSc3nnnn3C)CS[C@@H]21` [Cefmetazole], the dose excreted at 24 h was 9.1 ± 7.5%.

Assay: Blood level AUC after oral capsule of β-lactam antibiotic with adjuvant in dogs
Assay type: in vivo, dog (Beagles)
Conditions: 300 mg/kg, dog, per os capsule, control, no absorption promotor, carbenicillin by bioassay, read-out: (AUC)° area below the blood level curve
Protocol: Animal: Beagles (body weight 9.9-12.0 kg), 2 animals per test
Drug: β-Lactam antibiotics
Adjuvant: Hydroxylated aromatic carboxylic acids
Dose: β-Lactam antibiotic/adjuvant=300 mg/300 mg/kg
Form of inoculum: Capsule
Route of administration: Per os
Blood sampling: Vein (upper arm)
Object of assay: Blood level
Quantitation: Carbenicillin was determined by bioassay.
In the case of `CC1(C)S[C@@H]2[C@H](NC(=O)C(C(=O)O)c3ccccc3)C(=O)N2[C@H]1C(=O)O` (stereo partly drawn) [Carbenicillin], the AUC is reported as 5200 ng·h/mL.

Assay: not given
Conditions: gastric acid; prior art; cited from earlier work
In the case of `CC1(C)S[C@@H]2[C@H](NC(=O)COc3ccccc3)C(=O)N2[C@H]1C(=O)O` [penicillin V], the acid stability is given as “more acid stable”.

Assay: not given
Conditions: in vivo, po; cited from earlier work
In the case of `CO[C@@]1(NC(=O)C(C(=O)O)c2ccc(O)cc2)C(=O)N2C(C(=O)O)=C(CSc3nnnn3C)CO[C@@H]21` (stereo partly drawn) [Example S-6059], the oral activity is given as “poor oral activity”.
In the case of `CC1(C)S[C@@H]2[C@H](NC(=O)C(C(=O)Oc3ccccc3)c3ccccc3)C(=O)N2[C@H]1C(=O)O` (stereo partly drawn) [carfecillin], the absorbed is given as 40% and the blood levels is given as “low blood levels of carbenicillin”.
For `CC1(C)S[C@@H]2[C@H](NC(=O)C(C(=O)Oc3ccc4c(c3)CCC4)c3ccccc3)C(=O)N2[C@H]1C(=O)O` (stereo partly drawn) [carindacillin], the absorbed is listed as 40% and the blood levels is listed as “low blood levels of carbenicillin”.
For `CC1=C(C(=O)O)N2C(=O)[C@@H](NC(=O)[C@H](N)c3ccc(O)cc3)[C@H]2SC1` [cefdioxil], the absorbed is listed as “greater than 80%”.
In the case of `CO[C@@]1(NC(=O)Cc2cccs2)C(=O)N2C(C(=O)O)=C(COC(N)=O)CS[C@@H]21` [cefoxitin, (6R-cis)-3-[[(amino-carbonyl)oxy]methyl]-7-methoxy-8-oxo7[(2-thienylacetyl)-amino]-5-thia-1-azabicyclo [4.2.0]oct-2-ene-2-carboxylic acid], the oral activity is listed as “poor oral activity”.
For `CO/N=C(\C(=O)N[C@@H]1C(=O)N2C(C(=O)O)=C(COC(N)=O)CS[C@H]12)c1ccco1` [cefuroxime], the oral activity is given as “poor oral activity”.
In the case of `CC(=O)OCC1=C(C(=O)O)N2C(=O)[C@@H](NC(=O)Cc3cccs3)[C@H]2SC1` [cephalothin], the oral activity is given as “poor oral activity”.
In the case of `CC1=C(C(=O)O)N2C(=O)[C@@H](NC(=O)[C@H](N)C3=CCC=CC3)[C@H]2SC1` [cephradine], the absorbed is listed as “greater than 80%”.

Same assay, conditions: oral; prior art; cited from earlier work
For `CO[C@@]1(NC(=O)CSCC#N)C(=O)N2C(C(=O)O)=C(CSc3nnnn3C)CS[C@@H]21` [Cefmetazole], the oral activity is given as “poor oral activity”.
In the case of `CCN1CCN(C(=O)N[C@@H](C(=O)N[C@@H]2C(=O)N3C(C(=O)O)=C(CSc4nnnn4C)CS[C@H]23)c2ccc(O)cc2)C(=O)C1=O` [Example T-1551], the oral activity is listed as “poor oral activity”.
In the case of `CC1(C)S[C@@H]2[C@H](NC(=O)[C@H](N)c3ccc(O)cc3)C(=O)N2[C@H]1C(=O)O` [amoxicillin, 6-[[amino(4-hydroxyphenyl)-acetyl]amino]-3,3-dimethyl-7-oxo-4-thia-1-azabicyclo-[3.2.0]heptane-2-carboxylic acid], the oral activity is given as “poor oral activity”.
In the case of `CC1(C)S[C@@H]2[C@H](NC(=O)[C@H](N)c3ccccc3)C(=O)N2[C@H]1C(=O)O` [ampicillin], the oral activity is given as “poor oral activity”.
For `N[C@@H](C(=O)N[C@@H]1C(=O)N2C(C(=O)O)=C(Cl)CS[C@H]12)c1ccccc1` [cefaclor], the absorbed is listed as “greater than 80%”.
For `Cc1nnc(SCC2=C(C(=O)O)N3C(=O)[C@@H](NC(=O)[C@H](N)c4ccc(O)cc4)[C@H]3SC2)s1` [cefaporole], the oral activity is given as “poor oral activity”.
For `Cc1nnc(SCC2=C(C(=O)O)N3C(=O)[C@@H](NC(=O)Cn4cnnn4)[C@H]3SC2)s1` [cefaxolin], the oral activity is listed as “poor oral activity”.
In the case of `CC(=O)OCC1=C(C(=O)O)N2C(=O)[C@@H](NC(=O)CC#N)[C@H]2SC1` [cephacetrile], the oral activity is listed as “poor oral activity”.
In the case of `CC(=O)OCC1=C(C(=O)O)N2C(=O)[C@@H](NC(=O)[C@H](N)c3ccccc3)[C@H]2SC1` [cephaloglycin], the absorbed is given as “greater than 80%”.
For `O=C(Cc1cccs1)N[C@@H]1C(=O)N2C(C(=O)[O-])=C(C[n+]3ccccc3)CS[C@H]12` [cephaloridine], the oral activity is listed as “poor oral activity”.
For `CC(=O)OCC1=C(C(=O)O)N2C(=O)[C@@H](NC(=O)CCC[C@@H](N)C(=O)O)[C@H]2SC1` [cephalosporin C], the oral activity is listed as “lack of oral activity”.
In the case of `CC(=O)OCC1=C(C(=O)O)N2C(=O)[C@@H](NC(=O)CSc3ccncc3)[C@H]2SC1` [cephapirin], the oral activity is given as “poor oral activity”.
For `CC1(C)S[C@@H]2[C@H](NC(=O)COc3ccccc3)C(=O)N2[C@H]1C(=O)O` [penicillin V], the blood levels is given as “higher blood levels of the active therapeutic agent”.
In the case of `CC1(C)S[C@@H]2[C@H](NC(=O)[C@H](C(=O)O)c3ccsc3)C(=O)N2[C@H]1C(=O)O` [ticarcillin], the oral activity is given as “cannot be administered by the oral route”.
